From patent US8680109B2, “Combination product comprising SRC kinase inhibitor AZDO530 and an antioestrogen or EGFR-TK-inhibitor” (AstraZeneca AB, priority 2004, dated 2014)

Experiments:
[1] = system: 'Tam-R' cells; assay: Test (d) fibronectin cell migration assay; format: cell-based; conditions: Homo sapiens, 20 h; read-out: IC50 versus 'Tam-R' cells, Test (d) fibronectin cell migration
Experimental: (§1) ‘Tam-R’ MCF7 breast cancer cells were maintained in phenol red-free RPMI medium supplemented with 5% charcoal-stripped, steroid-depleted foetal calf serum, antibiotics as above, glutamine (200 mM) and 4-hydroxytamoxifen (10^−7M in ethanol).
(d) Fibronectin Cell Migration Assay
The polycarbonate filter membranes of Transwell chambers (6.5 mm diameter, 8.0 μm pore size from Costar Inc., Cambridge, Mass., USA) were coated on the underside of the membrane with 50 μg/ml fibronectin in serum-free RPMI for 2 hours at 37° C. The polycarbonate membranes were rinsed once with PBS. Cells were harvested and resuspended at a concentration of 5×10^5 cells per ml in serum-free RPMI. Aliquots of cells (100 μl; 5×10^4 cells) were seeded into each well to which 500 μl of experimental medium had been added. In control experiments, cells were allowed to migrate toward the underside of the membrane for 20 hours. In test experiments, appropriate concentrations of inhibitor compounds (or combinations of inhibitor compounds) were added and cells were allowed to migrate toward the underside of the membrane for 20 hours. […] The number of migrating cells was counted at 20-fold magnification using an inverted microscope.

[2] = system: human tumour cell line A549; assay: Test (h) in vitro microdroplet migration assay; format: cell-based; conditions: read-out: activity, Test (h) (migratory inhibitory IC50)
Experimental: (h) In Vitro Microdroplet Migration Assay
This assay determines the ability of a test compound (or combination of test compounds) to inhibit the migration of adherent mammalian cell lines, for example the human tumour cell line A549.
RPMI medium (Sigma) containing 10% FCS, 1% L-glutamine and 0.3% agarose (Difco Catalogue No. 0142-01) was warmed to 37° C. in a water bath. A stock 2% aqueous agar solution was autoclaved and stored at 42° C. An aliquot (1.5 ml) of the agar solution was added to RPMI medium (10 ml) immediately prior to its use. A549 cells (Accession No. ATCC CCL185) were suspended at a concentration of 2×10^7 cells/ml in the medium and maintained at a temperature of 37° C.
A droplet (2 μl) of the cell/agarose mixture was transferred by pipette into the centre of each well of a number of 96-well, flat bottomed non-tissue-culture-treated microtitre plate (Bibby Sterilin Catalogue No. 642000). The plates were placed briefly on ice to speed the gelling of the agarose-containing droplets. Aliquots (90 μl) of medium which had been cooled to 4° C. were transferred into each well, taking care not to disturb the microdroplets. Test compounds were diluted from a 10 mM stock solution in DMSO using RPMI medium as described above. […]
Migration was assessed visually and the distance of migration was measured back to the edge of the agar droplet. […]

[3] = system: human and/or mouse carcinomas grown as tumours in athymic nude mice; assay: Test (i) in vivo xenograft growth assays; conditions: AZD0530 used alone; oral once daily
Source text: (i) In Vivo Xenograft Growth Assays
This test measures the ability of combination product of the invention to inhibit the growth of human and/or mouse carcinomas grown as tumours in athymic nude mice. Suitable cancer cells for injection include human MCF7 breast cancer cells (obtainable from American Type Culture Collection, 10801 University Boulevard, Manassas, Va. 20110-2209; Cat. No. HTB-22), c-Src transfected mouse 3T3 fibroblast cancer cells (transfection with an activating mutant (Y530F) of human c-Src via a similar procedure to that described by Shalloway et al., Cell, 1987, 49, 65-73), human LoVo colorectal cancer cells (obtainable from European Collection of Cell Cultures, ECACC, CAMR, Salisbury, Wiltshire, SP4 0JG, UK; Cat. No. CCL 229), human CaLu-6 lung cancer cells (ATCC Cat. No. HTB-56) and human A549 NSCLC cancer cells (ATCC Cat. No. CCL185).
A total of about 1×10^6 human cancer cells in 0.1 ml of a 1:1 mixture of matrigel (Beckton Dickinson Catalogue No. 40234) and Eagle's Minimum Essential Medium (EMEM; Gibco Catalogue No 21090-022) were injected subcutaneously into a flank of each test mouse and the resultant tumours were allowed to grow for about 10 days. […] Tumour size was measured twice weekly using callipers and a theoretical volume was calculated. The effect on tumour growth was assessed.

[4] = system: MCF7 human breast cancer cells; assay: Test (f) cell attachment assay; format: cell-based
Experimental: (f) Cell Attachment Assay
The wells of a 96-well plate were coated with Matrigel (50 μg/well) and air-dried overnight in a sterile tissue culture hood. Cells growing in log phase were harvested and adjusted to a concentration of 2×10^5 cells per ml in culture medium containing appropriate concentrations of inhibitor compounds (or combinations of inhibitor compounds). Aliquots of cells (2×10^4 cells) were seeded into each well and the plate was incubated at 37° C. for 30 minutes. The wells were washed twice with PBS to remove unbound cells prior to the addition to each well of 150 μl of MTT solution (0.5 mg/ml in serum-free medium). Plates were incubated for a further 4 hours at 37° C. to allow the development of […] crystals within the cells. The MTT solution was removed from the wells and the dye was extracted at 4° C. overnight with 10% TX-100 solution. The absorbance was measured with a Titerteck Multiskan ELISA plate reader (Flow Laboratories, UK) equipped with a 540 nm filter. Cell attachment in response to the treatments was calculated as a percentage of the cells adhered in the control (untreated) wells.

[5] = system: MCF7 human breast cancer cells; assay: Test (b) time lapse analysis of cell motility; format: cell-based
Experimental: (b) Time Lapse Analysis of Cell Motility
Cells were cultured in 6-well tissue-culture plates and allowed to reach log phase growth. Plates were transferred to the heated stage of an inverted microscope and cell cultures were overlaid with mineral oil to minimise pH changes in the medium during the cell motility analysis. Cell motility was recorded over a period of 6 hours using a video camera coupled to a time lapse video recording system. For quantitation of cell motility, images were captured at 10 minute intervals during video playback and the movement of at least 10 individual cells was tracked using Optimas image analysis software (Media Cybernetics UK, Finchampstead, Berkshire, GB). Cell movement was plotted as either cell position (x-position vs. y-position) or total distance migrated (μm) as a function of time. To determine the directional persistence of cell motility, paths of cells were plotted such that all paths start from the origin.

[6] = system: 'Tam-R' cells; assay: Test (e) cell invasion assay; format: cell-based; conditions: Homo sapiens, 72 h; read-out: IC50 versus 'Tam-R' cells, Test (e) cell invasion
Experimental: as §1
A modification of the method previously described by Hiscox et al. (Breast Cancer Research Treatment, 2000, 59, 245-254) was used to study the invasive nature of the breast cancer cells.
Transwell polycarbonate filter membrane inserts (6.5 mm diameter, 8 μm pore size from Costar Inc.) were placed in 24-well tissue-culture plates and were coated with Matrigel (0.4 μg/ml) at ambient temperature overnight in a sterile tissue culture hood. After rehydrating the wells with serum-free RPMI for 1 hour at 37° C., cells were seeded onto the membrane inserts at 5×10^4 cells/well with or without appropriate concentrations of inhibitor compounds (or combinations of inhibitor compounds) and 600 μl of culture medium was added such that the membrane inserts were immersed. The wells were cultured at 37° C. for 72 hours, after which the non-invasive cells and Matrigel were removed from the inside of the wells with a cotton swab. […] Cell invasion was quantified with a fluorescent microscope by viewing 5 separate fields per membrane at 2-fold magnification and counting the number of cells in each field. […]

[7] = system: MCF7 human breast cancer cells ('wild type', 'Tam-R', 'Tam/TKI-R'); assay: Test (a) cell growth studies; format: cell-based; conditions: MCF7, 168 h
Source text: Various test methods have been described by Knowlden et al., Endocrinology, 2003, 144, 1032-1044 and include one or more of:— • (i) tamoxifen-responsive ‘wild type’ MCF7 human breast cancer cells; • (ii) an endocrine-insensitive variant of such MCF7 breast cancer cells that was designated ‘Tam-R’ (tamoxifen-resistant); and • (iii) a variant of such ‘TAM-R’ cells that was also insensitive to treatment with the EGFR TKI ZD1839 that was designated ‘Tam/TKI-R’.
Tamoxifen-responsive ‘wild type’ MCF7 breast cancer cells were routinely cultured in phenol red-free RPMI medium supplemented with 5% foetal calf serum plus penicillin (10 IU/ml), streptomycin (10 μg/ml) and fungizone (2.5 μg/ml). Cultures were maintained at 37° C. in a humidified atmosphere with 5% CO2. […]
Cell monolayers were grown for 7 days in serum growth factor free DCCM medium in the presence of increasing concentrations of the individual components of the above-mentioned combinations or with the combinations themselves. Cell population growth was evaluated by means of trypsin dispersion of the cell monolayers and cell number was measured using a Beckman Coulter counter (available from Beckman Coulter Limited, Luton, GB). […]

[8] = system: tamoxifen resistant MCF7 breast cancer cells; conditions: cited from earlier work

Structure (SMILES) | IC50 [1] [nM] | IC50 [2] [nM] | activity (active dose), Test (i) xenograft growth [3] [mg/kg/day] | IC50 [4] [nM] | IC50 [5] [nM] | IC50 [6] [nM] | IC50 [7] [nM] | basal and TGFα stimulated growth [8]
CN1CCN(CCOc2cc(OC3CCOCC3)c3c(Nc4c(Cl)ccc5c4OCO5)ncnc3c2)CC1 [AZD0530, 4-(6-chloro-2,3-methylenedioxyanilino)-7-[2-(4-methylpiperazin-1-yl)ethoxy]-5-tetrahydropyran-4-yloxyquinazoline] | ~100 | 100 to 5000 | 1 to 200 | 100 to 1000 | 100 to 1000 | ~100 | 100 to 5000 | –
COc1cc2ncnc(Nc3ccc(F)c(Cl)c3)c2cc1OCCCN1CCOCC1 [ZD1839, N-(3-chloro-4-fluorophenyl)-7-methoxy-6-(3-morpholinopropoxy)quinazolin-4-amine] | – | – | – | – | – | – | – | could be inhibited
